Experimental data reported in patent US20100179059A1, “Fungicidal Mixtures” (BASF SE, priority 2007, published 2010).
Where two headings read alike, the source gives them in different places.

Tests used:
Type in all cases: cell-based
Botrytis cinerea = assay: Activity against the grey mold Botrytis cinerea in the microtiterplate test
Septoria tritici = assay: Activity against leaf blotch on wheat caused by Septoria tritici (microtiter plate); settings: active compound alone, 7 days after inoculation
Pyricularia oryzae = settings: active compound alone, 7 days after inoculation
[1] = Botrytis cinerea, 168 h, active compound alone, 0.063 ppm, 7 days after inoculation, read-out: Observed efficacy
[2] = Botrytis cinerea, 168 h, active compound alone, 7 days after inoculation, read-out: Observed efficacy

Fc1ccc([C@]2(Cn3cncn3)O[C@H]2c2ccccc2Cl)cc1 (racemic) [Epoxiconazol, (2RS,3SR)-1-[3-(2-chlorophenyl)-2,3-epoxy-2-(4-fluorophenyl)propyl]-1H-1,2,4-triazole, reference compound]
inhibition of growth at 0.25 ppm (Botrytis cinerea; Botrytis cinerea, 168 h, active compound alone, 0.25 ppm, 7 days after inoculation, read-out: Observed efficacy): 37% | Observed efficacy (Septoria tritici; 0.063 ppm): 66%

CC(C)OC(=O)N[C@H](C(=O)N[C@H](C)c1nc2ccc(F)cc2s1)C(C)C [Benthivalicarb, isopropyl {(S)-1-[(1R)-1-(6-fluorobenzothiazol-2-yl)ethylcarbamoyl]-2-methylpropyl}carbamate, reference compound]
inhibition of growth at 0.063 ppm (Botrytis cinerea; Botrytis cinerea, 168 h, read-out: Observed efficacy): 0%

COC(=O)Nc1nc2ccccc2[nH]1 [Carbendazim, methyl (1H-benzoimidazol-2-yl)-carbamate, reference compound]
Observed efficacy (Pyricularia oryzae; 0.25 ppm): 30% | inhibition of growth at 0.063 ppm (Botrytis cinerea; [1]): 74%

OC(c1cccnc1)c1c(-c2ccc(Cl)cc2Cl)noc1-c1cccc(Cl)c1 (centres unmarked) [Cmpd No. 4, 5-(3-Chlorophenyl)-3-(2,4-dichlorophenyl)-4-[(3-pyridyl)hydroxymethyl]-isoxazole]
inhibition of growth at 0.001 ppm (Botrytis cinerea; [2]): 2%

CC(C)(C)c1onc(-c2ccc(Cl)cc2Cl)c1C(O)c1cccnc1 (centres unmarked) [Cmpd No. 7, 3-(2,4-Dichlorophenyl)-5-(1,1-dimethylethyl)-4-[(3-pyridyl)hydroxymethyl]-isoxazole]
Observed efficacy (Pyricularia oryzae; 0.001 ppm): 2%

OC(c1cccnc1)c1c(-c2ccc(Cl)cc2)noc1-c1ccc(F)cc1 (centres unmarked) [Cmpd No. 88, 3-(4-Chlorophenyl)-5-(4-fluorophenyl)-4-[(3-pyridyl)-hydroxymethyl]-isoxazole]
Observed efficacy (Pyricularia oryzae; 1 ppm): 3%

OC(c1cccnc1)c1c(-c2ccc(F)cc2)noc1-c1ccccc1Cl (centres unmarked) [Cmpd No. 90, 5-(2-Chlorophenyl)-3-(4-fluorophenyl)-4-[(3-pyridyl)-hydroxymethyl]-isoxazole]
Observed efficacy (Pyricularia oryzae; 0.000063 ppm): 6% | inhibition of growth at 4e-06 ppm (Botrytis cinerea; Botrytis cinerea, 168 h, active compound alone, 0.000004 ppm, 7 days after inoculation, read-out: Observed efficacy): 5% | inhibition of growth at 1.6e-05 ppm (Botrytis cinerea; Botrytis cinerea, 168 h, active compound alone, 0.000016 ppm, 7 days after inoculation, read-out: Observed efficacy): 5% | inhibition of growth at 6.3e-05 ppm (Botrytis cinerea; Botrytis cinerea, 168 h, active compound alone, 0.000063 ppm, 7 days after inoculation, read-out: Observed efficacy): 1% | inhibition of growth at 0.00025 ppm (Botrytis cinerea; [2]): 1% | Observed efficacy (Septoria tritici; 0.00025 ppm): 9%

OC(c1cccnc1)c1c(-c2cc(F)cc(F)c2)noc1-c1ccc(Cl)cc1 (centres unmarked) [Cmpd No. 124, 5-(4-Chlorophenyl)-3-(3,5-difluorophenyl)-4-[(3-pyridyl)-hydroxymethyl]-isoxazole]
inhibition of growth at 0.001 ppm (Botrytis cinerea; [2]): 1%

OC(c1cccnc1)c1c(-c2ccc(Cl)cc2F)noc1-c1ccccc1F (centres unmarked) [Cmpd No. 144, 3-(4-Chloro-2-fluorophenyl)-4-[(3-pyridyl)-hydroxymethyl]-5-(2-fluorophenyl)-isoxazole]
inhibition of growth at 0.00025 ppm (Botrytis cinerea; [2]): 4% | inhibition of growth at 0.001 ppm (Botrytis cinerea; [2]): 2% | Observed efficacy (Septoria tritici; 0.016 ppm): 16%

OC(c1cccnc1)c1c(-c2ccc(F)cc2F)noc1-c1ccc(Cl)cc1F (centres unmarked) [Cmpd No. 145, 3-(2,4-Difluorophenyl)-4-[(3-pyridyl)-hydroxymethyl]-5-(4-chloro-2-fluorophenyl)-isoxazole]
Observed efficacy (Pyricularia oryzae; 0.000063 ppm): 10% | inhibition of growth at 0.001 ppm (Botrytis cinerea; [2]): 20%

OC(Cc1ccccc1Cl)(Cn1nc[nH]c1=S)C1(Cl)CC1 (centres unmarked) [Prothioconazol, 2-[2-(1-chlorocyclopropyl)-3-(2-chlorophenyl)-2-hydroxypropyl]-2,4-dihydro-[1,2,4]triazole-3-thione, reference compound]
inhibition of growth at 1 ppm (Botrytis cinerea; Botrytis cinerea, 168 h, active compound alone, 1 ppm, 7 days after inoculation, read-out: Observed efficacy): 46%

COC(=O)N(OC)c1ccccc1COc1ccn(-c2ccc(Cl)cc2)n1 [Pyraclostrobin, reference compound]
Observed efficacy (Pyricularia oryzae; 0.016 ppm): 67%

Cc1cc(C)nc(Nc2ccccc2)n1 [Pyrimethanil, 4,6-dimethylpyrimidin-2-ylphenylamine, reference compound]
inhibition of growth at 0.063 ppm (Botrytis cinerea; [1]): 5% | Observed efficacy (Septoria tritici; 16 ppm): 38%

manganese ethylenebis(dithiocarbanate) zinc complex [Mancozeb]
Observed efficacy (Septoria tritici; 4 ppm): 52%

zinc propylenebis(dithiocarbamate) polymer [Propineb, reference compound]
Observed efficacy (Botrytis cinerea; active compound alone, 4 ppm, 7 days after inoculation): 32%
